Source: patent US20230119068A1, “METHODS FOR RAPID SYNTHESIS OF PYRANOANTHOCYANINS” (Ohio State Innovation Foundation, priority 2020, published 2023)

How the values were obtained:
[1] = Color expression of cis and trans isomers of acylated delphinidin at different pH; assay type: physicochemical; details: for color expression: pH 4
Experimental: Delphinidin-3-(p-coumaroyl)-rutinoside-5-glucoside was extracted from Chinese eggplants, semi-purified and taken to 400 mg/L in methanol. Extract aliquots were placed in sealed quartz cuvettes, with the clear side facing up, and irradiated with different light sources (sunlight, D65 lamp, and UV chamber at 365 nm) for up to 112 hrs. Pigment isomerization was monitored over time on a uHPLC-PDA-MS/MS, using a pentafluorophenyl column and positive electrospray ionization on a triple quadrupole. Cis and trans-delphinidin-derivatives were isolated to compare their color stability and strength. Color was measured on a ColorQuest XE spectrophotometer, using 10° observer angle, illuminant D65, and total transmittance. Data was collected in triplicates and analyzed by two-way ANOVA.

[2] = test system: E. coli, S. aureus and B. cereus, and LAB; details: compared with CA and FA; cited from earlier work

| Compound | color expression [1] | color intensity ([1]; pH 5) | antibacterial activity [2] |
| --- | --- | --- | --- |
| Delphinidin-3-(p-coumaroyl)-rutinoside-5-glucoside [cis-delphinidin] | noticeable color | greater color intensity than the trans-isomer |  |
| O=C(O)/C=C/c1ccc(O)cc1 [pCA, p-coumaric acid] |  |  | stronger antibacterial activity |
| Delphinidin-3-(p-coumaroyl)-rutinoside-5-glucoside [trans-delphinidin] | bleached completely |  |  |
